Assay results from patent US9273057B2 (Bristol-Myers Squibb Company, priority 2012, dated 2016).

Molecular target: CK2A1 (CK2α/β) (Homo sapiens, UniProt P68400)
Experiment: CK2 kinase assay, CK2A1 (CK2α/β)
Assay type: biochemical
Conditions: Table A; read-out: CK2A1 (CK2α/β) (IC50)

CK2A1 (CK2α/β), sequence (P68400 whole entry, species assumed): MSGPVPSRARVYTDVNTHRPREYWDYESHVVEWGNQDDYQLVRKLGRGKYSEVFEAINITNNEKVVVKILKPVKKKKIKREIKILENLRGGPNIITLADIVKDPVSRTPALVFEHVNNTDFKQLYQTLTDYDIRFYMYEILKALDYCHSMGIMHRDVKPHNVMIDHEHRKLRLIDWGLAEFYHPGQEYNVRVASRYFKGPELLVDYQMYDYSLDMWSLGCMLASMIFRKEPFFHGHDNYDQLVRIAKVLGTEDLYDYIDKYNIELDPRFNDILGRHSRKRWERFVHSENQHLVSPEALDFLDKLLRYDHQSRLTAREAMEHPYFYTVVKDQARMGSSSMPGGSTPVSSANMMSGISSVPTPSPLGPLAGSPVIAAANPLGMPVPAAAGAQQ
CK2A1 (CK2α/β), sequence (P67870 whole entry partner, species assumed): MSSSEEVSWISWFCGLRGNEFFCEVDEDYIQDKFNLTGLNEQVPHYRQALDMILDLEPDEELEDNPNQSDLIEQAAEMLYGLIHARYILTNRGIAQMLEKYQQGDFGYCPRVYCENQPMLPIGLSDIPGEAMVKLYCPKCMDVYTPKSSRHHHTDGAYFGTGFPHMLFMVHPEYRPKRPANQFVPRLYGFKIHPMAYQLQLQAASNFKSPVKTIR

| SMILES | IC50 [nM] |
| --- | --- |
| COC(=O)Nc1cc(Nc2nc(NC3CC3)c3ncc(C#N)n3n2)c(Cl)c(N2CC(N3CCN(C)CC3)C2)c1 [Example 203, methyl (4-chloro-3-((7-cyano-4-(cyclopropylamino)imidazo[2,1-f][1,2,4]triazin-2-yl)amino)-5-(3-(4-methyl-1-piperazinyl)-1-azetidinyl)phenyl)carbamate] | 1.79 |
| COC(=O)Nc1cc(Nc2nc(NC3CC3)c3ncc(C#N)n3n2)c(Cl)c(N2CC(N3CCC(OC)CC3)C2)c1 [Example 204, methyl (4-chloro-3-((7-cyano-4-(cyclopropylamino)imidazo[2,1-f][1,2,4]triazin-2-yl)amino)-5-(3-(4-methoxy-1-piperidinyl)-1-azetidinyl)phenyl)carbamate] | 0.87 |
| COC(=O)Nc1cc(Nc2nc(NC3CC3)c3ncc(C#N)n3n2)c(Cl)c(N2CCC(N3CCOCC3)CC2)c1 [Example 205, methyl (4-chloro-3-((7-cyano-4-(cyclopropylamino)imidazo[2,1-f][1,2,4]triazin-2-yl)amino)-5-(4-(4-morpholinyl)-1-piperidinyl)phenyl)carbamate] | 1.95 |
| N#Cc1cc(Nc2nc(NC3CC3)c3ncc(C#N)n3n2)c(Cl)c(C2CCNCC2)c1 [Example 208, 2-((2-chloro-5-cyano-3-(piperidin-4-yl)phenyl)amino)-4-(cyclopropylamino)imidazo[2,1-f][1,2,4]triazine-7-carbonitrile] | 0.57 |
| CN1CCC(c2cc(C#N)cc(Nc3nc(NC4CC4)c4ncc(C#N)n4n3)c2Cl)CC1 [Example 209, 2-(2-chloro-5-cyano-3-(1-methylpiperidin-4-yl)phenylamino)-4-(cyclopropylamino)imidazo[1,2,f][1,2,4]triazine-7-carbonitrile] | 0.56 |
| N#Cc1cc(Nc2nc(NC3CC3)c3ncc(C#N)n3n2)c(Cl)c(C2CCN(C3COC3)CC2)c1 [Example 210, 2-((2-chloro-5-cyano-3-(1-(3-oxetanyl)-4-piperidinyl)phenyl)amino)-4-(cyclopropylamino)imidazo[2,1-f][1,2,4]triazine-7-carbonitrile] | 0.71 |
| COCCN1CCC(c2cc(C#N)cc(Nc3nc(NC4CC4)c4ncc(C#N)n4n3)c2Cl)CC1 [Example 211, 2-(2-chloro-5-cyano-3-(1-(2-methoxyethyl)piperidin-4-yl)phenylamino)-4-(cyclopropylamino)imidazo[1,2-f][1,2,4]triazine-7-carbonitrile] | 0.9 |
| N#Cc1cc(Nc2nc(NC3CC3)c3ncc(C#N)n3n2)c(Cl)c(C2CCN(CC(F)F)CC2)c1 [Example 212, 2-(2-chloro-5-cyano-3-(1-(2,2-difluoroethyl)piperidin-4-yl)phenylamino)-4-(cyclopropylamino)imidazo[1,2-f][1,2,4]triazine-7-carbonitrile] | 0.78 |
| N#Cc1cc(Nc2nc(NC3CC3)c3ncc(C#N)n3n2)c(Cl)c(C2CCN(C3CCN(C4CC4)CC3)CC2)c1 [Example 213, 2-(2-chloro-5-cyano-3-(1′-cyclopropyl-1,4′-bipiperidin-4-yl)phenylamino)-4-(cyclopropylamino)imidazo[1,2-f][1,2,4]triazine-7-carbonitrile] | 4 |
| CCNc1nc(Nc2cc(C#N)cc(C3CCN(C[C@H](C)O)CC3)c2Cl)nn2c(C#N)cnc12 [Example 214, 2-((2-chloro-5-cyano-3-(1-((2S)-2-hydroxypropyl)-4-piperidinyl)phenyl)amino)-4-(ethylamino)imidazo[2,1-f][1,2,4]triazine-7-carbonitrile] | 4.55 |
| N#Cc1cc(Nc2nc(NC3CC3)c3ncc(C#N)n3n2)c(Cl)c(C2CCN(CC3CC3)CC2)c1 [Example 215, 2-((2-chloro-5-cyano-3-(1-(cyclopropylmethyl)-4-piperidinyl)phenyl)amino)-4-(cyclopropylamino)imidazo[2,1-f][1,2,4]triazine-7-carbonitrile] | 0.62 |
| C[C@H](O)CN1CCC(c2cc(C#N)cc(Nc3nc(NC4CC4)c4ncc(C#N)n4n3)c2Cl)CC1 [Example 216, (S)-2-(2-chloro-5-cyano-3-(1-(2-hydroxypropyl)piperidin-4-yl)phenylamino)-4-(cyclopropylamino)imidazo[1,2-f][1,2,4]triazine-7-carbonitrile] | 1.02 |
| N#Cc1cc(Nc2nc(NC3CC3)c3ncc(C#N)n3n2)c(Cl)c(C2CCN(C3CC[C@@H](N)[C@H](O)C3)CC2)c1 (stereo partly drawn) [Example 217, 2-((3-(1-((3R,4R)-4-amino-3-hydroxycyclohexyl)-4-piperidinyl)-2-chloro-5-cyanophenyl)amino)-4-(cyclopropylamino)imidazo[2,1-f][1,2,4]triazine-7-carbonitrile] | 0.6 |
| CC(C)(O)CN1CCC(c2cc(C#N)cc(Nc3nc(NC4CC4)c4ncc(C#N)n4n3)c2Cl)CC1 [Example 219, 2-((2-chloro-5-cyano-3-(1-(2-hydroxy-2-methylpropyl)-4-piperidinyl)phenyl)amino)-4-(cyclopropylamino)imidazo[2,1-f][1,2,4]triazine-7-carbonitrile] | 0.59 |
| N#Cc1cc(Nc2nc(NC3CC3)c3ncc(C#N)n3n2)c(Cl)c(C2CCN(CC(N)=O)CC2)c1 [Example 220, 2-[4-(2-chloro-5-cyano-3-{[7-cyano-4-(cyclopropylamino)imidazo[2,1-f][1,2,4]triazin-2-yl]amino}phenyl)piperidin-1-yl]acetamide] | 0.7 |
| N#Cc1cc(Nc2nc(NC3CC3)c3ncc(C#N)n3n2)c(Cl)c(C2CCN(C3CC4(COC4)C3)CC2)c1 [Example 222, 2-((2-chloro-5-cyano-3-(1-(2-oxaspiro[3.3]hept-6-yl)-4-piperidinyl)phenyl)amino)-4-(cyclopropylamino)imidazo[2,1-f][1,2,4]triazine-7-carbonitrile] | 1.17 |
| [2H]C1(N2CCC(c3cc(C#N)cc(Nc4nc(NC5CC5)c5ncc(C#N)n5n4)c3Cl)CC2)COC1 [Example 223, 2-((2-chloro-5-cyano-3-(1-(3-~2~H)-3-oxetanyl-4-piperidinyl)phenyl)amino)-4-(cyclopropylamino)imidazo[2,1-f][1,2,4]triazine-7-carbonitrile] | 0.95 |
| CC1(CN2CCC(c3cc(C#N)cc(Nc4nc(NC5CC5)c5ncc(C#N)n5n4)c3Cl)CC2)COC1 [Example 225, 2-((2-chloro-5-cyano-3-(1-((3-methyl-3-oxetanyl)methyl)-4-piperidinyl)phenyl)amino)-4-(cyclopropylamino)imidazo[2,1-f][1,2,4]triazine-7-carbonitrile] | 2 |
| COC(=O)N1CCC(c2cc(C#N)cc(Nc3nc(NC4CC4)c4ncc(C#N)n4n3)c2Cl)CC1 [Example 226, methyl 4-(2-chloro-5-cyano-3-((7-cyano-4-(cyclopropylamino)imidazo[2,1-f][1,2,4]triazin-2-yl)amino)phenyl)piperidine-1-carboxylate] | 0.48 |
| COCC(=O)N1CCC(c2cc(C#N)cc(Nc3nc(NC4CC4)c4ncc(C#N)n4n3)c2Cl)CC1 [Example 227, 2-((2-chloro-5-cyano-3-(1-(methoxyacetyl)-4-piperidinyl)phenyl)amino)-4-(cyclopropylamino)imidazo[2,1-f][1,2,4]triazine-7-carbonitrile] | 0.59 |
| CC(=O)OC(C)(C)C(=O)N1CCC(c2cc(C#N)cc(Nc3nc(NC4CC4)c4ncc(C#N)n4n3)c2Cl)CC1 [Example 228, 2-(4-(2-chloro-5-cyano-3-((7-cyano-4-(cyclopropylamino)imidazo[2,1-f][1,2,4]triazin-2-yl)amino)phenyl)-1-piperidinyl)-1,1-dimethyl-2-oxoethyl acetate] | 0.51 |
